Results published in patent publication US6534056B1, “Therapeutic and diagnostic uses of protein tyrosine phosphatase TC-PTP” (McGill University, priority 1998, dated 2003).

Key:
EFM4−/− cells = assay: Survival (MTT conversion) 24 h after methyl methane-sulfonate treatment, TC-PTP knock-out cell line; assay type: cell-based, murine; conditions: 5 μM MMS, 24 h after treatment, FIG. 5D
Method: (§1) Cell proliferation and survival. Primary MEF+/+ and −/−, and TC-PTP+/+ and TC-PTP−/− cell, lines were seeded in 24-well cell culture plates at a density of […] in DMEM with 10% FBS. Cell number was determined after trypsinization by trypan blue exclusion or by MTT assay (Mosmann (1983) J. Immunol. Methods. 62:55-63) at day 1, 3, 5 and 7 after plating. Cells were treated with gamma- or UV-irradiation at doses indicated using a Gammacell 1000 (Atomic Energy of Canada) with a 137Cs source and Stratalinker (Stratagene) respectively. After irradiation, the cells were plated in triplicate on 24-well plates. Survival was evaluated by MTT viability assays 48 hr post-radiation.
(§2) The function of cell cycle checkpoints is to verify the physical status of the genomic DNA. […] To assess the effects of DNA-damaging agents such as γ-radiation, UV-C radiation and methyl methane-sulfonate (MMS) treatment on TC-PTP−/− cells, we first evaluated at different times after treatment, the effect of 1000 rads of γ-radiation on the survival of the EFM7+/+, EFM3+/− and EFM4−/− cells. […] Conversion of MTT was evaluated as a measure of survival at 8, 24 and 48 h after the treatment and it is expressed as the percentage of OD570 measurements of treated to untreated wells. […]
(§3) Another DNA-damaging agent used was MMS, which is a DNA alkylating agent that results in single-strand breaks. […] Results are expressed as in A.

EFM7+/+ cells = assay: Survival (MTT conversion) 24 h after methyl methane-sulfonate treatment, wild-type cell line; assay type: cell-based, murine; conditions: 5 μM MMS, 24 h after treatment, FIG. 5D
Method: as §1, §2, §3

COS(C)(=O)=O [MMS, methyl methane-sulfonate]
viability after MMS treatment (EFM4−/− cells): strong decrease in the viability | viability after MMS treatment (EFM7+/+ cells): slight decrease
